Laboratory results as given in ChEMBL document CHEMBL5532748, “Design, synthesis and antibacterial activity evaluation of ebselen derivatives in NDM-1 producing bacteria” (RSC Med Chem, 2024).
Calls of active or inactive are those of the source. No cut-off for these calls is given here.

Key:
Enterobacter cloacae [1] = assay: Antibacterial activity against Enterobacter cloacae producing NDM-1, IMP-4 and TEM-1 beta-lactamases; assay type: functional
Citrobacter freundii [2] = assay: Antibacterial activity against Citrobacter freundii producing NDM-1 and SHV-12 in presence of meropenem; assay type: functional
Klebsiella pneumoniae [3] = assay: Antibacterial activity against Klebsiella pneumoniae producing NDM-1, KPC-2 and SHV-12 beta-lactamases in presence of meropenem; assay type: functional
Escherichia coli [4] = assay: Antibacterial activity against Escherichia coli producing NDM-1, CTX-M-15 and SHV-12 beta-lactamases in presence of meropenem; assay type: functional
[5] = target: Metallo-beta-lactamase type 2 (Bacteria) (UniProt C7C422); assay: Binding affinity to wild type NDM-1 (unknown origin) assessed as change in NDM-1 enzyme complex at 100 uM by ESI-MS analysis
Chain of Metallo-beta-lactamase type 2 (Bacteria) (C7C422 whole entry): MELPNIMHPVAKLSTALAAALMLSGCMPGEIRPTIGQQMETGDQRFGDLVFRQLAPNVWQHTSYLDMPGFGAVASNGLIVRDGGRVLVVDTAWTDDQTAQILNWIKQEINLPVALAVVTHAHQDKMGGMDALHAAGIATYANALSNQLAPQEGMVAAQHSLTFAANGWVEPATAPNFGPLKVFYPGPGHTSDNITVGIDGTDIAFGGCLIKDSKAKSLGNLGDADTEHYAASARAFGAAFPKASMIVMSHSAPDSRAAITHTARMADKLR

Citrobacter freundii [6] = assay: Antibacterial activity against Citrobacter freundii producing NDM-1 and SHV-12 beta-lactamases; assay type: functional
Enterobacter cloacae [7] = assay: Synergistic antibacterial activity against Enterobacter cloacae producing NDM-1, TEM-1 and SHV-12 beta-lactamases assessed as fractional inhibitory concentration index in presence of meropenem; assay type: functional
Enterobacter cloacae [8] = assay: Synergistic antibacterial activity against Enterobacter cloacae producing NDM-1, IMP-4 and TEM-1 beta-lactamases assessed as fractional inhibitory concentration index in presence of meropenem; assay type: functional
Klebsiella pneumoniae [9] = assay: Synergistic antibacterial activity against Klebsiella pneumoniae producing NDM-1, KPC-2 and SHV-12 beta-lactamases assessed as fractional inhibitory concentration index in presence of meropenem; assay type: functional
Enterobacter cloacae [10] = assay: Antibacterial activity against Enterobacter cloacae producing NDM-1, TEM-1 and SHV-12 beta-lactamase in presence of meropenem; assay type: functional
Citrobacter freundii [11] = assay: Synergistic antibacterial activity against Citrobacter freundii producing NDM-1, CTX-M-3 and KPC-2 beta-lactamases assessed as fractional inhibitory concentration index in presence of meropenem; assay type: functional
Escherichia coli [12] = assay: Antibacterial activity against Escherichia coli producing NDM-1 and CTX-M-15 beta-lactamases in presence of meropenem; assay type: functional
Caco-2 [13] = assay: Antibacterial activity against Salmonella lomita SL131 infected in human Caco-2 cells assessed as reduction in bacterial survival rate at 32 to 64 ug/ml incubated for 6 hrs in presence of meropenem by agar dilution method; assay type: functional, cell-based; conditions: Salmonella enterica subsp. enterica serovar Lomita, dose 32-64 µg/ml
Enterobacter cloacae [14] = assay: Antibacterial activity against Enterobacter cloacae producing NDM-1, CTX-M-14 and TEM-1 beta-lactamases; assay type: functional
Escherichia coli [15] = assay: Synergistic antibacterial activity against Escherichia coli BJE-4 expressing NDM-1 gene assessed as fractional inhibitory concentration index in presence of meropenem; assay type: functional
Escherichia coli [16] = assay: Synergistic antibacterial activity against Escherichia coli producing NDM-1, CTX-M-15 and SHV-12 beta-lactamases assessed as fractional inhibitory concentration index in presence of meropenem; assay type: functional
Enterobacter cloacae [17] = assay: Antibacterial activity against Enterobacter cloacae producing NDM-1, TEM-1 and SHV-12 beta-lactamases; assay type: functional
Enterobacter cloacae [18] = assay: Antibacterial activity against Enterobacter cloacae producing NDM-1, CTX-M-14 and TEM-1 beta-lactamases in presence of meropenem; assay type: functional
Caco-2 [19] = assay: Antibacterial activity against Salmonella lomita SL131 infected in human Caco-2 cells assessed as reduction in bacterial survival rate at 64 ug/ml incubated for 6 hrs by agar dilution method; assay type: functional, cell-based; conditions: Salmonella enterica subsp. enterica serovar Lomita, dose 64.0 µg/ml
Enterobacter cloacae [20] = assay: Antibacterial activity against Enterobacter cloacae producing NDM-1, IMP-4 and TEM-1 beta-lactamases in presence of meropenem; assay type: functional
Escherichia coli [21] = assay: Synergistic antibacterial activity against Escherichia coli TG-1 transfected with Klebsiella pneumoniae full-length NDM-1 beta lactamase gene assessed as fractional inhibitory concentration index in presence of meropenem; assay type: functional
Enterobacter cloacae [22] = assay: Synergistic antibacterial activity against Enterobacter cloacae producing NDM-1, CTX-M-14 and TEM-1 beta-lactamases assessed as fractional inhibitory concentration index in presence of meropenem; assay type: functional
Escherichia coli [23] = assay: Antibacterial activity against Escherichia coli producing NDM-1, CTX-M-15 and SHV-12 beta lactamases; assay type: functional
HEK-293T = assay: Cytotoxicity against HEK293T cells assessed as reduction in cell viability at 8 to 64 ug/ml incubated for 48 hrs by MTT assay; assay type: toxicity, cell-based; conditions: human, dose 8-64 µg/ml
Citrobacter freundii [24] = assay: Synergistic antibacterial activity against Citrobacter freundii producing NDM-1 and SHV-12 beta-lactamases assessed as fractional inhibitory concentration index in presence of meropenem; assay type: functional
Escherichia coli [25] = assay: Antibacterial activity against Escherichia coli BJE-4 expressing NDM-1 gene in presence of meropenem; assay type: functional
Citrobacter freundii [26] = assay: Antibacterial activity against Citrobacter freundii producing NDM-1, CTX-M-3 and KPC-2 beta-lactamases in presence of meropenem; assay type: functional
Escherichia coli [27] = assay: Synergistic antibacterial activity against Escherichia coli producing NDM-1 and CTX-M-15 beta-lactamases assessed as fractional inhibitory concentration index in presence of meropenem; assay type: functional
Escherichia coli [28] = assay: Antibacterial activity against Escherichia coli producing NDM-1 and CTX-M-15 beta lactamases; assay type: functional
Klebsiella pneumoniae [29] = assay: Antibacterial activity against Klebsiella pneumoniae producing NDM-1, KPC-2 and SHV-12 beta-lactamases; assay type: functional
[30] = target: Metallo-beta-lactamase type 2 (Bacteria, UniProt C7C422); assay: Inhibition of NDM-1 (unknown origin) using nitrocefin as substrate incubated for 15 to 60 mins by absorption based analysis
Chain of Metallo-beta-lactamase type 2 (C7C422 whole entry): as above

Escherichia coli [31] = assay: Antibacterial activity against Escherichia coli BJE-4 expressing NDM-1 gene; assay type: functional
Escherichia coli [32] = assay: Antibacterial activity against Escherichia coli TG-1 transfected with Klebsiella pneumoniae full-length NDM-1 beta lactamase gene incubated in presence of meropenem; assay type: functional
Escherichia coli [33] = assay: Antibacterial activity against Escherichia coli TG-1 transfected with Klebsiella pneumoniae full-length NDM-1 beta-lactamase gene; assay type: functional
Citrobacter freundii [34] = assay: Antibacterial activity against Citrobacter freundii producing NDM-1, CTX-M-3 and KPC-2 beta-lactamases; assay type: functional

In the case of `CC(C)(C)OC(=O)NCCCCCCn1[se]c2ccccc2c1=O`, the MIC (Enterobacter cloacae [1]) is reported as > 64 µg/mL, the MIC (Citrobacter freundii [2]) is reported as 8 µg/mL and the MIC (Klebsiella pneumoniae [3]) is reported as 16 µg/mL. For the same compound, the MIC (Escherichia coli [4]) was 8 µg/mL, the Activity [5] was “Active” and the MIC (Citrobacter freundii [6]) was > 64 µg/mL. For the same compound, the “fractional inhibitory concentration index (FICI)” value (Enterobacter cloacae [7]) was 0.125, the “fractional inhibitory concentration index (FICI)” value (Enterobacter cloacae [8]) was 0.5 and the “fractional inhibitory concentration index (FICI)” value (Klebsiella pneumoniae [9]) was 0.5. For the same compound, the MIC (Enterobacter cloacae [10]) was 4 µg/mL, the “fractional inhibitory concentration index (FICI)” value (Citrobacter freundii [11]) was 0.375 and the MIC (Escherichia coli [12]) was 8 µg/mL. For the same compound, the Activity (Caco-2 [13]) was “Active”, the MIC (Enterobacter cloacae [14]) was > 128 µg/mL and the “fractional inhibitory concentration index (FICI)” value (Escherichia coli [15]) was 0.313. For the same compound, the “fractional inhibitory concentration index (FICI)” value (Escherichia coli [16]) was 0.25, the MIC (Enterobacter cloacae [17]) was > 64 µg/mL and the MIC (Enterobacter cloacae [18]) was 8 µg/mL. The Activity (Caco-2 [19]) was “inactive”, the MIC (Enterobacter cloacae [20]) was 16 µg/mL and the “fractional inhibitory concentration index (FICI)” value (Escherichia coli [21]) was 0.125. The “fractional inhibitory concentration index (FICI)” value (Enterobacter cloacae [22]) was 0.188, the MIC (Escherichia coli [23]) was > 64 µg/mL and the Activity (HEK-293T) was “Non-Toxic”. The “fractional inhibitory concentration index (FICI)” value (Citrobacter freundii [24]) was 0.25, the MIC (Escherichia coli [25]) was 4 µg/mL and the MIC (Citrobacter freundii [26]) was 16 µg/mL. For the same compound, the “fractional inhibitory concentration index (FICI)” value (Escherichia coli [27]) was 0.25, the MIC (Escherichia coli [28]) was > 64 µg/mL and the MIC (Klebsiella pneumoniae [29]) was > 64 µg/mL. The IC50 [30] was 26.8 µM, the MIC (Escherichia coli [31]) was > 16 µg/mL and the MIC (Escherichia coli [32]) was 4 µg/mL. For the same compound, the MIC (Escherichia coli [33]) was > 64 µg/mL and the MIC (Citrobacter freundii [34]) was > 128 µg/mL.
